# Test results from ChEMBL document CHEMBL4028880, “Structure-Activity Relationships of New Natural Product-Based Diaryloxazoles with Selective Activity against Androgen Receptor-Positive Breast Cancer Cells” (J Med Chem, 2017).
# Assay: Aqueous solubility of the compound
# Assay type: physicochemical
# Conditions: buffer
structure (smiles),measurement,value
CC(C)=CCOc1ccc(-c2cnc(-c3ccccc3)o2)cc1,solubility,Insoluble
